Measured values from patent US20110207655A1, “CYCLIC DEPSIPEPTIDE COMPOUND AND USE THEREOF” (Astellas Pharma Inc., priority 2008, published 2011).
Starred links: 1 amine or outer side, 2 acyl side, 3 side chain; linkers in the order of their positions; H or OH if unused. Positions of bridges follow the written chain, without caps; N, C: chain ends. Non-standard residues stand in square brackets, D forms with d. Residues, ends and D or L forms follow the SMILES beside them. Leu(3R-O(AcLeu(3R-OH))) = CC(=O)N[C@H](C(=O)O[C@H](C(C)C)[C@H](N)C(=O)O)[C@H](O)C(C)C; X1 = CO[C@H](C)C(C(=O)[*:2])N(C)[*:1]; dPhLac = O=C(O)[C@H](O)Cc1ccccc1; NMeA = CN[C@@H](C)C(=O)O; NMeDha = C=C(NC)C(=O)O

What was measured:
[1] = tested on: Gq/11; assay: Inhibitory action on Gq/11: LTD4-induced cellular Ca2+ change in CHO cells stably expressing CysLTR2 (FLIPR); format: cell-based; conditions: read-out: Gq/11 inhibitory activities (IC50 values), 10 nM LTD4, maximum Fluo-4 fluorescence intensity
Description: The test was carried out according to the method of Non-Patent Citation 3, using a leukotriene receptor CysLTR2 (cysteinyl leukotriene receptor 2), which is known to activate Gq/11. CHO cells stably expressing CysLTR2 were seeded on a 96-well black/clear bottom plate (manufactured by Becton, Dickinson and Company) at 20,000 cells per well, and after 24 hours of seeding, the medium was discarded. Then, Hanks BSS (GIBCO Inc.) including 2 μM Fluo-4, AM (manufactured by Molecular Probe Co.), 0.004% pluronic acid, 1% FBS, 20 mM HEPES, and 2.5 mM probenecid was added thereto at 100 μL per well, followed by incubation at 37° C. for 1 hour. After incubation, the resultant was washed four times with Hanks BSS including 20 mM HEPES, and Hanks BSS including 20 mm HEPES per well was added thereto 100 μL per well. In addition, 50 μL of a test compound that had been diluted with Hanks BSS including 20 mM HEPES to a final concentration from 1×10^−10 M to 1×10^−5 M was added thereto, followed by being left to stand at room temperature for 30 minutes. The change of cellular Ca^2+ concentration after addition of leukotriene D4 (LTD4, manufactured by Cayman Co.), which is a CysLTR2 ligand, was measured over time using an FLIPR (Molecular Device Corp.). 50 μL it of leukotriene D4 that had been diluted with Hanks BSS including 20 mM HEPES to a final concentration of 10 nM at 10 seconds after the initiation of measurement was added thereto, fluorescence intensities were measured every second for 50 seconds and every sixth second for 2 minutes, and a maximum fluorescence intensity during a measurement time of 3 minutes was observed. By plotting the concentrations and the fluorescence intensities of the test compounds, the IC50 values were calculated, which were taken as Gq/11 inhibitory activities.

[2] = tested on: Gq and G11; conditions: Non-Patent Citation 3; cited from earlier work
[3] = tested on: G15 and G16; conditions: Non-Patent Citation 3; cited from earlier work
[4] = tested on: ADP receptors (P2Y1, P2Y2); conditions: in-vitro tests, Non-Patent Citation 3; cited from earlier work
[5] = tested on: muscarinic receptors (M1); conditions: in-vitro tests, Non-Patent Citation 3; cited from earlier work
[6] = tested on: blood pressure; conditions: intravenous 30 μg/kg, Non-Patent Citation 4; cited from earlier work

In the case of `C=C1C(=O)N[C@@H](C)C(=O)N(C)[C@@H](C)C(=O)N[C@@H]([C@H](OC(=O)[C@@H](NC(C)=O)[C@H](O)C(C)C)C(C)C)C(=O)N(C)C([C@@H](C)OC)C(=O)O[C@H](C)[C@H](NC(C)=O)C(=O)O[C@H](Cc2ccccc2)C(=O)N1C` (stereo partly drawn) [Ref 1] (Ac-T[dPhLac][NMeDha]A[NMeA][Leu(3R-O(AcLeu(3R-OH)))][X1]; ester 1-C), the IC50 [1] is listed as 66 nM, the “inhibition of Gq and G11” value [2] is listed as “strongly inhibits” and the “inhibition of G15 and G16” value [3] is listed as “does not inhibit”. The “reactions of ADP receptors (P2Y1, P2Y2)” value [4] was “inhibits”, the “reactions of muscarinic receptors (M1)” value [5] was “inhibits” and the hypotensive action [6] was “hypotensive action”.
